Results reported in patent US20040138826A1, “Experimental design and data analytical methods for detecting and characterizing interactions and interaction thresholds on fixed ratio rays of polychemical mixtures and subsets thereof” (priority 2002, published 2004).
Where two headings read alike, the source gives them in different places.

Columns and labels:
[1] = tested on: rats; conditions: single chemical data, rats
From the text: The endpoint of interest is neurotoxicity in rats as measured by a gait score dichotomized to indicate presence or absence of a gait abnormality (i.e., incoordination, loss of balance, etc.). The fixed-ratio ray under study was chosen based on the relative dietary exposure estimates of each chemical as projected by the U.S. EPA Dietary Exposure Evaluation Model (DEEM) and is given by (0.040:0.002:0.031:0.825:0.102) for ACE, DIA, CPF, MAL, DIM, respectively. […] (Note: Such a strategy can be extended for identifying the impact of the unidentified fraction in a complex mixture.)
The biological endpoint of interest is an indicator of neurotoxicity based on evidence of the presence or absence of a gait abnormality (Moser, 1995). In order to appropriately constrain the probability of a response to be between 0 and 1, a logit link function was used, i.e., g(μ)=log(μ/(1−μ)). It was assumed throughout that the variance changes as a binomial random variable such that Var(Y)=τμ(1−μ) (e.g., McCullagh and Nelder, 1989).
The resulting mixture experiment consisted of a vehicle control (n=14), ‘positive controls’ for ACE alone (6 and 30 mg/kg; n=6, 14, respectively), CPF alone (10, 20, 30 mg/kg; n=6, 8, 6, respectively), DIAZ alone (50 and 125 mg/kg; n=6, 14, respectively), MAL alone (350 mg/kg; n=14), DIM alone (10, 25, 50 mg/kg; n=6, 8, 6, respectively), and six total dose mixture concentrations (10, 55, 100, 200, 300 and 450 mg/kg; n=12 rats per dose group for a total of 72 rats exposed to a mixture of the chemicals) at a fixed mixing ratio ray of (0.040:0.002:0.031:0.825:0.102) for (ACE:DIA:CPF:MAL:DIM). Similarly, the design for a second fixed-ratio ray was based on a reduced number of the pesticides (omitting MAL) with the remaining pesticides at the same relative proportions as in the ‘full’ mixture study. The experiment consisted of a vehicle control (n=8), positive controls (n=8 per group) for ACE (30 mg/kg), CPF (20 mg/kg), DIA (125 mg/kg), and DIM (25 mg/kg), and six total dose mixture concentrations (1.75, 9.6, 17.5, 35, 52.5, and 78.8 mg/kg; n=12 rats per dose group) at a fixed mixing ratio ray of (0.229:0.011:0.177:0.583) for (ACE:DIA:CPF:DIM). Casey et al (2003a,b) describe the motor activity data in the mixture of these five pesticides.

[2] = tested on: healthy adult rats; conditions: rats; for Mean Motor Activity Response: single chemical
From the text: To motivate the use of these fixed-ratio mixture ray designs consider a study which examines exposure to environmentally relevant pesticides. The OP pesticides chosen for study, based on usage patterns (i.e. pesticides used on same or similar crops) and market share (i.e. highest volume pesticides), were acephate, diazinon, chlorpyrifos, dimethoate, and malathion. Motor activity, a count of the number of passes made across a central area, was used to assess toxicity in healthy adult rats. A full five-pesticide fixed-ratio ray, given by (0.040:0.002:0.031:0.102:0.825) for (acephate:diazinon:chlorpyrifos:dimethoate:malathion), was chosen based on relative dietary exposure estimates of each chemical as projected by the U.S. EPA Dietary Exposure Evaluation Model (DEEM).
Single chemical data were collected approximately 18 months prior to the data along the full fixed-ration ray.
Fixed-ratio ray designs were chosen to study interactions among combinations of multiple pesticides. The pesticides chosen for these studies, based on usage patterns (i.e., pesticides used on the same or similar crops) and market share (i.e., highest volume pesticides), were acephate, diazinon, chlorpyrifos, dimethoate, and malathion. Motor activity, a count of the number of passes made across a central area, was chosen to assess the toxicity of these pesticides in healthy adult rats. The fixed-ratio ray under study was chosen based on the relative dietary exposure estimates of each chemical as projected by the U.S. EPA Dietary Exposure Evaluation Model (DEEM) and is given by (0.040:0.002:0.031:0.102:0.825) for acephate, diazinon, chlorpyrifos, dimethoate, and malathion respectively.
The five-pesticide study described in the introduction is used to illustrate the sample size and power methods developed in Section 3. Due to the high potential of aggregate exposure to OP pesticides, researchers were initially interested in testing the hypothesis of additivity, given in (5), along the full five-pesticide fixed-ratio ray, given by (0.040:0.002:0.031:0.102:0.825) for ([…]), that represents relative dietary exposure estimates. Single chemical data were collected and used to estimate an additivity model along the ray (analysis not shown). Since, the motor activity response is a count variable it was assumed that V(m)=m and the log link function (McCullagh and Nelder, 1989) was used to fit the generalized linear additivity model described in Section 2. […] Eighty-six animals were considered. Fourteen animals were evaluated in the control group. Twelve animals each were evaluated at 10, 55, 100, 200, 300, and 450 mg/kg. Summary statistics for the single chemical and mixture data are provided in the appendix.
The five-pesticide study described in the introduction is used to illustrate the design methodology developed in the following sections. Due to the high potential for aggregate exposure to OP pesticides, researchers were initially interested in testing the hypothesis of additivity, given in (4), along the full five-pesticide fixed-ratio ray, given by (0.040:0.002:0.031:0.102:0.825) for (acephate:diazinon:chlorpyrifos:dimethoate:malathion). Since motor activity response is a count variable, it was assumed that V(μ)=μ and the log link function (McCullagh and Nelder, 1989) was used to fit the generalized linear additivity model given in (1). […] Eighty-six animals were considered. Fourteen animals were evaluated in the control group. Twelve animals each were evaluated at 10, 55, 100, 200, 300, and 450 mg/kg.

[3] = tested on: female CD-1 mice; assay: Liver damage by serum sorbitol dehydrogenase (SDH) after 14 days oral gavage of trihalomethane DBPs; conditions: for Estimate of slope parameter γi, additivity model for SDH response: generalized linear model with power link, λ = 0.5, single chemical data only, female CD-1 mice, 14 days oral gavage; for Mean SDH (STD): positive control
Protocol: The mixture selected for the study used to illustrate the methodology proposed here is that of four trihalomethanes formed as disinfection by-products (DBPs) when water is chlorinated. […] The endpoint of interest is liver damage, as measured by serum sorbitol dehydrogenase (SDH) levels in female CD-1 mice after 14 days of exposure by oral gavage. Seven separate experiments were conducted: four single chemical studies and three mixture studies. A more complete description of the experimental methods is provided in Gennings, et al. (1997; 2000). […] The fixed mixing ratio of interest is associated with the chlorination process of disinfection (McDonald et al., 1999). The purpose of this study was to determine if the four DBPs combine additively, i.e., with no interaction.
The data used to illustrate the methodology developed in the following sections involves the combination of four chemicals, which are disinfection by-products in drinking water. Summary statistics for the single chemical data are provided in Gennings et al. (1997, 2000). A generalized linear model with a power link function, [formula]
After the single chemical studies were completed, three mixture studies were conducted. […] In order to verify that the dose-response relationship was consistent across the different studies, the additivity model given in (1) was used to predict the response for each of the positive control groups. […] The p-value is associated with the Wald-type test for equivalence of the two means.
The objective of this paper is to develop a method for testing for departure from additivity when the single chemical data cannot be used to describe the no interaction case. The mixture data of interest are assumed to result from a fixed-ratio ray design.

[4] = tested on: normal human epidermal keratinocytes (NHEK); conditions: for LD50 (estimated): Example 6; for LD50 (50% cell killing in individual cytotoxicity assays): predetermined, Example 5; for Sample Mean (% viability): single metal, 24 hr
Protocol: Cells and culture conditions. Cryopreserved, pooled normal human epidermal keratinocytes (NHEK) were purchased from the Clonetics Corp. (San Diego, Calif.). NHEK cells were grown in defined Keratinocyte Growth Medium-KGM™ (Clonetics).
Cytotoxicity analyses. For toxicity studies, cells were plated at a density of 2,500 cells/cm^2 in 6-well plastic tissue culture plates and grown for 24 hr before metal treatment. Triplicate wells of cells were treated with increasing concentrations of As, Cr, Cd, Pb, or a mixture of the four metals for 24 hr. Concentrations used for As and Cr were 0.3, 1, 3, 10 , and 100 mM. The Cr stock was made by mixing a 1:1 ratio of trivalent and hexavalent chromium. Cd and Pb were administered at 3, 10, 30, 100, and 300 mM. […] The concentrations of these three metals in the 1× mixture solution was 7.7 mM As, 4.9 mM Cr, 6.1 mM Cd. […] This 1× solution was serially diluted at a 1:3 ratio to get 0.333, 0.111, 0.037, 0.0123, 0.004, and 0.0014 dilution groups. Double deionized water was used as the vehicle control in all cases. After exposure to the individual metals or metal mixture, cells were refed with fresh metal-free KGM medium and incubated for 3 days prior to viability analysis by the MTT assay.
MTT assay. The MTT assay was carried out using a modification of the method of Mosmann (1983). MTT was dissolved at 5 mg/ml in 1× PBS [phosphate-buffered saline]. This stock solution was filtered through a […] and stored at 4° C. Immediately before use, the stock solution was diluted to 0.5 mg/ml with serum-free KGM to make a working solution. Working solution (1 ml) was added to each well of cells after aspiration of medium. Cells were incubated at 37° C. for 3 hr, after which time, the MTT was removed by aspiration. Cells were subsequently lysed by addition of 0.5 ml of dimethyl sulfoxide (DMSO). The absorbence at 550 nm of samples as well as a DMSO blank was read on a Microplate Autoreader (Bio-Tek Instruments, Inc, Winooski, Vt.). The absorbance of the DMSO blank was subtracted from all values. All absorbance values were standardized to the water vehicle control.
The methodology introduced in this paper is illustrated with cytotoxicity data obtained from assessing interactions among arsenic (As), cadmium (Cd), chromium (Cr), and lead (Pb) in human keratinocytes. The experimental data were obtained from Ray Yang and colleagues at Colorado State University. The endpoint of interest is the percent viability of treated NHEK cells using the MTT assay. […] This 1× solution was serially diluted at a 1:3 ratio to get 0.333, 0.111, 0.037, 0.0123, 0.004, and 0.0014 dilution groups. Double deionized water was used as the vehicle control in all cases.
After exposure to individual metals or metal exposure, cells were refed with fresh metal-free KGM medium and incubated for 3 days prior to viability analysis by the MTT assay. Details of the experimental protocol and methods are described elsewhere (24, 1) and are not included here.

[5] = 1.52 mM/kg, mixture study = 0.05 total dose
[6] = 1.52 mM/kg, mixture study = 1.5 total dose
[7] = 1.52 mM/kg, mixture study = 3.0 total dose

SMILES	Estimate of slope parameter γi, additivity model for SDH response [3]	Mean SDH (STD) [3, 5]	Mean SDH (STD) [3, 6]	Mean SDH (STD) [3, 7]	LD50 (estimated) [4] [µM]	Sample Mean (% viability) ([4]; dose 3 (mM))	Sample Mean (% viability) ([4]; dose 10 (mM))	Sample Mean (% viability) ([4]; dose 30 (mM))	also measured
COP(=O)(NC(C)=O)SC (centres unmarked) [Acephate, acephate]	–	–	–	–	–	–	–	–	effect when given alone on gait abnormality [1]: significant effect on a gait abnormality; Threshold Estimate ([2]; dose threshold for motor activity, threshold additivity model, SAR analysis): 6.30 mg/kg; Mean Motor Activity Response ([2]; dose 3 mg/kg): 200.13; Mean Motor Activity Response ([2]; dose 10 mg/kg): 165.88; Mean Motor Activity Response ([2]; dose 30 mg/kg): 108.75; Mean Motor Activity Response ([2]; dose 60 mg/kg): 58.25; Mean Motor Activity Response ([2]; dose 120 mg/kg): 33.25
ClC(Cl)Br [BDCM, bromodichloromethane]	3.567	107.3 (97.5)	56.0 (17.4)	48.8 (23.3)	–	–	–	–	–
ClC(Br)Br [CDBM, chlorodibromomethane]	3.833	–	–	–	–	–	–	–	Mean SDH (STD) ([3]; 0.76 mM/kg, mixture study = 0.05 total dose): 38.0 (11.2); Mean SDH (STD) ([3]; 0.76 mM/kg, mixture study = 1.5 total dose): 28.1 (6.7); Mean SDH (STD) ([3]; 0.76 mM/kg, mixture study = 3.0 total dose): 19.3 (3.6)
BrC(Br)Br [CHBr3, bromoform]	2.441	64.0 (27.8)	56.0 (24.8)	86.4 (89.2)	–	–	–	–	–
ClC(Cl)Cl [CHCl3, chloroform]	1.538	63.1 (34.9)	46.6 (21.5)	24.3 (5.8)	–	–	–	–	–
[Cl][Cd][Cl] [Cadmium, cadmium chloride]	–	–	–	–	6.1	92.6	51.9	20.2	LD50 (50% cell killing in individual cytotoxicity assays) [4]: 6.1 mM; Sample Mean (% viability) ([4]; dose 100 (mM)): 3.8 % viability; Sample Mean (% viability) ([4]; dose 300 (mM)): 4.6 % viability
[Cr] [Chromium]	–	–	–	–	4.9	79.8	23.9	6.6	LD50 (50% cell killing in individual cytotoxicity assays) [4]: 4.9 mM; Sample Mean (% viability) ([4]; dose 0.3 (mM)): 105.1 % viability; Sample Mean (% viability) ([4]; dose 1.0 (mM)): 99.7 % viability
CC(=O)[O-].CC(=O)[O-].[Pb+2] [Lead, lead acetate]	–	–	–	–	100	95.5	91.0	98.8	cell killing ([4]; individual cytotoxicity assay): unable to get complete killing at any dose tested; Sample Mean (% viability) ([4]; dose 100 (mM)): 93.7 % viability; Sample Mean (% viability) ([4]; dose 300 (mM)): 28.9 % viability
